According to patent US20230152316A1, “SARS-COV2 SPIKE PROTEIN BINDING PEPTIDES” (priority 2020, published 2023):

Biological target: SARS-CoV-2-RBD (insect-derived) (Severe acute respiratory syndrome coronavirus 2, UniProt P0DTC2, F486P)

For TFLDKFNHEAED [SEQ ID NO: 15], the “binding to SARS-CoV-2-RBD” value was “did not bind”.
